IC50 data for 38 compounds are collected here from patent publication US10703764B2, “Benzopiperazine compositions as BET bromodomain inhibitors” (FORMA Therapeutics, Inc., priority 2013, dated 2020).

Some results are limits rather than exact numbers.

Assay [1] addresses T1, BRD4 BD1 (Homo sapiens, UniProt O60885).
T1 construct: made in house
Kind of assay: AlphaScreen binding assay, BRD4 Bromodomain 1. A digest of the protocol:
(§1)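 An AlphaScreen competition format was used with His-BRD4 BD1 or BD2 and biotin-H4 K5/8/12/16-acetyl peptide, each at matched final levels of 50 nM (BD1) or 100 nM (BD2). Incubation in HEPES/NaCl buffer with 0.1% BSA and 0.01% Triton X-100 ran ≥1 h before IC50 determination.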

Assay [2] addresses T2, BRD4 BD2 (Homo sapiens, UniProt O60885).
T2 construct: made in house
The experiment in a line: AlphaScreen binding assay, BRD4 Bromodomain 2. An outline of the steps: as §1
In general terms: Alpha assays give light when donor and acceptor beads are brought close together.

For assay [3], the system named is MV4-11 cells. Kind of assay: Oncology cell growth assay (3-day proliferation, CellTiter-Glo). It counts as cell-based. To be noted: Homo sapiens, MV4-11, 72 h, AML cell line MV4-11, 72 hours, compounds grouped by IC50 range, read-out: MV4-11 IC50 (inhibition of proliferation, gIC50). A digest of the protocol: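 A 3-day proliferation test used MV4-11 cells seeded at 3000 per well with eight compound concentrations (10 μM top, 3-fold dilution) at 37° C in 5% CO2. CellTiter-Glo luminescence defined viable cell signal. A four-parameter logistic curve against DMSO and background wells gave the gIC50.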

With `CC(=O)N1c2ccc(-c3ccc(C(=O)N4CCCCC4)cc3)cc2N(C(=O)OC(C)C)C[C@@H]1C` [Example I-537], the IC50 in assay [1] fell in the range of 100 to 1000 nM; in assay [2], 50 to 500 nM; in assay [3] it was 100 to 500 nM.
The corresponding values for `CC(=O)N1c2ccc(-c3ccc(C(=O)N4CCSCC4)cc3)cc2N(C(=O)OC(C)C)C[C@@H]1C` [Example I-538] are 100 to 1000 nM, 50 to 500 nM and 100 to 500 nM.
On to `CC(=O)N1c2ccc(-c3ccc(C(=O)N(C)CCN(C)C)cc3)cc2N(C(=O)OC(C)C)C[C@@H]1C` [Example I-539], for which the IC50 in assay [1] was 100 to 1000 nM; in assay [2], 50 to 500 nM; in assay [3], 100 to 500 nM.
On the same counts, the results for `CC(=O)N[C@@H]1CCN(C(=O)c2ccc(-c3ccc4c(c3)N(C(=O)OC(C)C)C[C@H](C)N4C(C)=O)cc2)C1` [Example I-540] are less than 100 nM, less than 50 nM and less than 100 nM.
The corresponding values for `CC(=O)N[C@H]1CCN(C(=O)c2ccc(-c3ccc4c(c3)N(C(=O)OC(C)C)C[C@H](C)N4C(C)=O)cc2)C1` [Example I-541] are 100 to 1000 nM, 50 to 500 nM and 100 to 500 nM.
On the same counts, the results for `CC(=O)N1c2ccc(-c3ccc(C(=O)N4CC[C@@H](N(C)C)C4)cc3)cc2N(C(=O)OC(C)C)C[C@@H]1C` [Example I-542] are less than 100 nM, less than 50 nM and less than 100 nM.
As for `CC(=O)N1c2ccc(-c3ccc(C(=O)N4CC[C@H](N(C)C)C4)cc3)cc2N(C(=O)OC(C)C)C[C@@H]1C` [Example I-543], the IC50 was less than 100 nM in assay [1], less than 50 nM in assay [2] and less than 100 nM in assay [3].
Regarding `CC(=O)N1c2ccc(-c3ccc(C(=O)N4CCN(C)CC4)cc3)cc2N(C(=O)OC(C)C)C[C@@H]1C` [Example I-544], the IC50 is 100 to 1000 nM in assay [1], 50 to 500 nM in assay [2] and 100 to 500 nM in assay [3].
With `CC(=O)N1c2ccc(-c3ccc(C(=O)N4CCN(C=O)CC4)cc3)cc2N(C(=O)OC(C)C)C[C@@H]1C` [Example I-545], the IC50 in assay [1] lay within 100 to 1000 nM; in assay [2], 50 to 500 nM; in assay [3] it was 100 to 500 nM.
Regarding `COC(=O)N1CCN(C(=O)c2ccc(-c3ccc4c(c3)N(C(=O)OC(C)C)C[C@H](C)N4C(C)=O)cc2)CC1` [Example I-546], the IC50 in assay [1] lay within 100 to 1000 nM; in assay [2] it was 50 to 500 nM; in assay [3], 100 to 500 nM.
On the same counts, the results for `CC(=O)N1c2ccc(-c3ccc(C(=O)N4CCNC(=O)C4)cc3)cc2N(C(=O)OC(C)C)C[C@@H]1C` [Example I-547] are 100 to 1000 nM, 50 to 500 nM and 100 to 500 nM.
The corresponding values for `CC(=O)N1CCN(C(=O)c2ccc(-c3ccc4c(c3)N(C(=O)OC(C)C)C[C@H](C)N4C(C)=O)cc2)CC1` [Example I-548] are 100 to 1000 nM, 50 to 500 nM and less than 100 nM.
The corresponding values for `CC(=O)N1c2ccc(-c3ccc(C(=O)N4CCN(S(C)(=O)=O)CC4)cc3)cc2N(C(=O)OC(C)C)C[C@@H]1C` [Example I-549] are 100 to 1000 nM, 50 to 500 nM and 100 to 500 nM.
Take `CC(=O)N1c2ccc(-c3ccc(C(=O)N(C)CC(=O)N(C)C)cc3)cc2N(C(=O)OC(C)C)C[C@@H]1C` [Example I-550]: the IC50 in assay [1] was less than 100 nM; in assay [2], 50 to 500 nM; in assay [3], 100 to 500 nM.
The corresponding values for `CC(=O)N1c2ccc(-c3ccc(C(=O)N(C)CCN4CCCC4)cc3)cc2N(C(=O)OC(C)C)C[C@@H]1C` [Example I-551] are 100 to 1000 nM, 50 to 500 nM and 100 to 500 nM.
The corresponding values for `CC(=O)N1c2ccc(-c3ccc(C(=O)N(C)c4ccccn4)cc3)cc2N(C(=O)OC(C)C)C[C@@H]1C` [Example I-552] are 100 to 1000 nM, 50 to 500 nM and 100 to 500 nM.
On the same counts, the results for `CC(=O)N1c2ccc(-c3ccc(C(=O)N4CCCN(C)CC4)cc3)cc2N(C(=O)OC(C)C)C[C@@H]1C` [Example I-553] are 100 to 1000 nM, 50 to 500 nM and less than 100 nM.
In the case of `CNC(=O)CN(C)C(=O)c1ccc(-c2ccc3c(c2)N(C(=O)OC(C)C)C[C@H](C)N3C(C)=O)cc1` [Example I-554], the values for the IC50 in assay [1], in assay [2] and in assay [3] were less than 100 nM, less than 50 nM and 100 to 500 nM, respectively.
Regarding `CC(=O)N1c2ccc(-c3ccc(C(=O)N4C[C@H]5CCN(C)[C@H]5C4)cc3)cc2N(C(=O)OC(C)C)C[C@@H]1C` [Example I-555], the IC50 in assay [1] is 100 to 1000 nM; in assay [2], 50 to 500 nM; in assay [3], less than 100 nM.
For the compound `CC(=O)N1c2ccc(-c3ccc(C(=O)N4CCNCC4)cc3)cc2N(C(=O)OC(C)C)C[C@@H]1C` [Example I-557], the IC50 was 100 to 1000 nM in assay [1], 50 to 500 nM in assay [2] and 100 to 500 nM in assay [3].
On the same counts, the results for `CC(C)OC(=O)N1C[C@H](C)N(C(=O)C2CC2)c2ccc(-c3ccc(C(=O)N4CCNCC4)cc3)cc21` [Example I-558] are 100 to 1000 nM, 50 to 500 nM and 100 to 500 nM.
As for `COC(=O)N1c2ccc(-c3ccc(C(=O)N4CCNCC4)cc3)cc2N(C(=O)OC(C)C)C[C@@H]1C` [Example I-559], the results for the IC50 in assay [1], in assay [2] and in assay [3] were 100 to 1000 nM, 50 to 500 nM and 100 to 500 nM, respectively.
The corresponding values for `COC(=O)N1c2ccc(-c3ccc(C(=O)N(C)CC(=O)N(C)C)cc3)cc2N(C(=O)OC(C)C)C[C@@H]1C` [Example I-561] are less than 100 nM, 50 to 500 nM and 100 to 500 nM.
The corresponding values for `CNC(=O)CN(C)C(=O)c1ccc(-c2ccc3c(c2)N(C(=O)OC(C)C)C[C@H](C)N3C(=O)C2CC2)cc1` [Example I-562] are 100 to 1000 nM, 50 to 500 nM and 100 to 500 nM.
The corresponding values for `CNC(=O)CN(C)C(=O)c1ccc(-c2ccc3c(c2)N(C(=O)OC(C)C)C[C@H](C)N3C(=O)OC)cc1` [Example I-563] are 100 to 1000 nM, 50 to 500 nM and 100 to 500 nM.
`CC(C)OC(=O)N1C[C@H](C)N(C(=O)C2CC2)c2ccc(-c3ccc(C(=O)N4CC[C@@H](N(C)C)C4)cc3)cc21` [Example I-564]: the IC50 lay in the range of 100 to 1000 nM in assay [1], 50 to 500 nM in assay [2] and 100 to 500 nM in assay [3].
The corresponding values for `COC(=O)N1c2ccc(-c3ccc(C(=O)N4CC[C@@H](N(C)C)C4)cc3)cc2N(C(=O)OC(C)C)C[C@@H]1C` [Example I-565] are 100 to 1000 nM, 50 to 500 nM and 100 to 500 nM.
Turning to `CC(C)OC(=O)N1C[C@H](C)N(C(=O)C2CC2)c2ccc(-c3ccc(C(=O)N4CC[C@H](N(C)C)C4)cc3)cc21` [Example I-566], the IC50 in assay [1] was 100 to 1000 nM; in assay [2] it was 50 to 500 nM; in assay [3] it was 100 to 500 nM.
The corresponding values for `COC(=O)N1c2ccc(-c3ccc(C(=O)N4CC[C@H](N(C)C)C4)cc3)cc2N(C(=O)OC(C)C)C[C@@H]1C` [Example I-567] are 100 to 1000 nM, 50 to 500 nM and 100 to 500 nM.
On the same counts, the results for `CC(=O)N[C@@H]1CCN(C(=O)c2ccc(-c3ccc4c(c3)N(C(=O)OC(C)C)C[C@H](C)N4C(=O)C3CC3)cc2)C1` [Example I-568] are 100 to 1000 nM, 50 to 500 nM and 100 to 500 nM.
The corresponding values for `COC(=O)N1c2ccc(-c3ccc(C(=O)N4CC[C@@H](NC(C)=O)C4)cc3)cc2N(C(=O)OC(C)C)C[C@@H]1C` [Example I-569] are 100 to 1000 nM, 50 to 500 nM and 100 to 500 nM.
Consider `CC(=O)N[C@H]1CCN(C(=O)c2ccc(-c3ccc4c(c3)N(C(=O)OC(C)C)C[C@H](C)N4C(=O)C3CC3)cc2)C1` [Example I-570], for which the IC50 lay within 100 to 1000 nM in assay [1], 50 to 500 nM in assay [2] and 100 to 500 nM in assay [3].
On the same counts, the results for `COC(=O)N1c2ccc(-c3ccc(C(=O)N4CC[C@H](NC(C)=O)C4)cc3)cc2N(C(=O)OC(C)C)C[C@@H]1C` [Example I-571] are 100 to 1000 nM, 50 to 500 nM and 100 to 500 nM.
Consider `CC(C)OC(=O)N1C[C@H](C)N(C(=O)C2CC2)c2ccc(-c3ccc(C(=O)N4CCN(S(C)(=O)=O)CC4)cc3)cc21` [Example I-572], for which the results for the IC50 in assay [1], in assay [2] and in assay [3] were 100 to 1000 nM, greater than 500 nM and 100 to 500 nM, respectively.
With `COC(=O)N1c2ccc(-c3ccc(C(=O)N4CCN(S(C)(=O)=O)CC4)cc3)cc2N(C(=O)OC(C)C)C[C@@H]1C` [Example I-573], the IC50 in assay [1] was 100 to 1000 nM; in assay [2], 50 to 500 nM; in assay [3], 100 to 500 nM.
On the same counts, the results for `CC(C)OC(=O)N1C[C@H](C)N(C(=O)C2CC2)c2ccc(-c3ccc(C(=O)N4CC[C@H](O)C4)cc3)cc21` [Example I-574] are 100 to 1000 nM, 50 to 500 nM and greater than 500 nM.
The corresponding values for `COC(=O)N1c2ccc(-c3ccc(C(=O)N4CC[C@H](O)C4)cc3)cc2N(C(=O)OC(C)C)C[C@@H]1C` [Example I-575] are 100 to 1000 nM, 50 to 500 nM and 100 to 500 nM.
On the same counts, the results for `CC(C)OC(=O)N1C[C@H](C)N(C(=O)C2CC2)c2ccc(-c3ccc(C(=O)N4CC[C@@H](O)C4)cc3)cc21` [Example I-576] are 100 to 1000 nM, 50 to 500 nM and 100 to 500 nM.
